# Literature values as cited in patent publication US20230330223A1, “TREATMENT OF HER2 NEGATIVE, MAMMAPRINT HIGH RISK 2 BREAST CANCER” (Agendia N.V., priority 2020, published 2023).
# System: locally advanced breast cancer (Stage II/III)
# Conditions: added to standard neoadjuvant chemotherapy; ERBB2-negative (HER2-negative) breast cancer
substance,measurement,value
"pembrolizumab: immune check point inhibitor, PD1/PDL1 inhibitor antibody (Merck)","estimated pCR rates, change versus standard chemotherapy",more than doubled
